From patent US8703722B2, “Inhibitors of F18+ E coli binding” (priority 2008, dated 2014) come the findings set out here.

The subject of experiment [1] is F18-positive E. coli strain 107/86. Put plainly: Carbohydrate inhibition in the in vitro villous adhesion assay (bacteria pre-incubated with saccharide). The class given is cell-based, Escherichia coli. The following applies: for Inhibition of F18+ E. coli adherence to porcine intestinal villi: Example 18, 1 mg saccharide in 100 μl PBS. From the text: The nature of the F18R on porcine small intestinal villous enterocytes was investigated using an in vitro villous adhesion inhibition assay (Cox, E., Houvenaghel, A., 1993. Vet. Microbiol. 34(1), 7-18; Verdonck, F., Cox, E., van Gog, K., Van der Stede, Y., Duchateau, L., Deprez, P., Goddeeris, B. M., 2002. Vaccine 20(23-24), 2995-3004). Briefly, a 20 cm intestinal segment was collected from the mid jejunum of a euthanized pig, rinsed three times with ice cold PBS, and fixed with Krebs-Henseleit buffer (160 mM, pH 7.4) containing 1% (v/v) formaldehyde for 30 min at 4° C. Thereafter, the villi were gently scraped from the mucosae with a glass slide and stored in Krebs-Henseleit buffer at 4° C. Treatment of villi with acetone, methanol, 1% Triton® X-100, 10 mM NaIO4 in 0.2M sodium acetate, pH 4.5, or 0.2M sodium acetate, pH 4.5, without NaIO4, respectively, was performed at room temperature on a rotating wheel in a volume of 500 μl during 1 h. Next, the villi were washed 6 times with Krebs-Henseleit buffer followed by addition of 4×10^8 bacteria of the F18 positive reference E. coli strain (107/86), or the F4ac-expressing E. coli strain GIS 26, to an average of 50 villi in a total volume of 500 μl PBS, supplemented with 1% (w/v) D-mannose in order to prevent adhesion mediated by type 1 pili. These mixtures were incubated at room temperature for 1 h while being gently shaken. Villi were examined by phase-contrast microscopy at a magnification of 600, and the number of bacteria adhering along 50 μm brush border was quantitatively evaluated by counting the number of adhering bacteria at 20 randomly selected places, after which the mean bacterial adhesion was calculated.
The F18-positive E. coli strain 107/86 (8×10^7 bacteria) was incubated with different concentrations (10 mg/ml, 1 mg/ml, […]) of blood group H type 1 pentasaccharide (Fucα2Galβ3GlcNAcβ3Galβ4Glc) or lacto-N-tetraose saccharide (Galβ3GlcNAcβ3Galβ4Glc) (Glycoseparations, Moscow, Russia) in a final volume of 100 μl PBS, for 1 h at room temperature, while being gently shaken. The mixtures were then added to the villi, and again incubated for 1 h at room temperature with gentle shaking. Thereafter, the villi were examined by phase-contrast microscopy at a magnification of 600, and the number of bacteria adhering along a […] brush border was quantitatively evaluated by counting the number of adhering bacteria at 20 randomly selected places, after which the mean bacterial adhesion was calculated. Villi of two different F18R-positive pigs were used, and the countings were performed in triplicate.
The F18-positive E. coli strain 107/86 (8×10^7 bacteria) was incubated with 1 mg of blood group H type 1 pentasaccharide (H5-1, Fucα2Galβ3GlcNAcβ3Galβ4Glc), blood group A type 1 hexasaccharide (A6-1, GalNAcα3(Fucα2)Galβ3GlcNAcβ3Galβ4Glc), blood group B type 1 hexasaccharide (B6-1, Galα3(Fucα2)Galβ3GlcNAcβ3Galβ4Glc) or lacto-N-tetraose saccharide (LNT, Galβ3GlcNAcβ3Galβ4Glc) (Elicityl, Grenoble, France) in a final volume of 100 μl PBS, for 1 h at room temperature, while being gently shaken. The mixtures were then added to the villi, and again incubated for 1 h at room temperature with gentle shaking. Thereafter, the villi were examined by phase-contrast microscopy, and adhering bacteria were quantified as described above. Villi of two different F18R-positive pigs were used, and the countings were performed in triplicate.
The mixtures were then added to the villi, and again incubated for 1 h at room temperature with gentle shaking. Thereafter, the villi were examined by phase-contrast microscopy, and adhering bacteria were quantified as described above. Villi of one F18R-positive pig was used, and the countings were performed in duplicate.

In experiment [2] the test system is recombinant F18 fimbriae-expressing Escherichia coli (pIH120). Put plainly: Chromatogram binding assay: 35S-labelled F18 fimbriae-expressing E. coli to glycosphingolipids on thin-layer chromatograms. The following applies: for Binding of F18-fimbriated E. coli (in words): chromatogram binding assay, F18-expressing strain HB101(pIH120); for Detection limit of binding of F18-fimbriated E. coli: dilutions of glycosphingolipids on thin-layer chromatograms. The protocol: Recombinant E. coli strains expressing whole F18 fimbriae (HB101(pIH120), or F18 fimbriae with deletion of the FedF adhesive subunit (HB101(pIH126)) (Imberechts et al., 1992; 1996), were grown on Iso Sensitest agar plates (Oxoid, Basingstoke, Hampshire, England) supplemented with ampicillin (100 μg/ml) at 37° C. over night. For metabolic labeling, the culture plates were supplemented with 10 μl ^35S-methionine (400 μCi; Amersham Pharmacia Biotech). Bacteria were harvested, washed three times in PBS, and resuspended in PBS containing 2% (w/v) bovine serum albumin, 0.1% (w/v) NaN3 and 0.1% (w/v) Tween 20 (BSA/PBS/TWEEN) to a bacterial density of 1×10^8 colony forming units/ml.
Aluminium- or glass-backed silica gel 60 high performance thin-layer chromatography plates (Merck, Darmstadt, Germany) were used for thin-layer chromatography, and eluted with chloroform/methanol/water (60:35:8, by volume) as solvent system. The different glycosphingolipids were applied to the plates in quantities of 0.002-4 μg of pure glycosphingolipids and 40 μg of glycosphingolipid mixtures. Chemical detection was done with anisaldehyde (Waldi D, 1962. Sprühreagentien für die dünnschicht-chromatographie, p. 496-515. In Stahl, E. (ed.), Dünnschicht-Chromatographie. Springer-Verlag, Berlin).
Binding of radiolabelled bacteria to glycosphingolipids on thin-layer chromatograms was done as described previously (Hansson G C, Karlsson K-A, Larson G, Strömberg N, Thurin J, 1985. Anal. Biochem. 146:158-163). Dried chromatograms were dipped in diethylether/n-hexane (1:5 v/v) containing 0.5% (w/v) polyisobutylmethacrylate for 1 min, dried, and then blocked with BSA/PBS/TWEEN for 2 h at room temperature. Thereafter, the plates were incubated with ^35S-labeled bacteria (1-5×10^6 cpm/ml) diluted in BSA/PBS/TWEEN for another 2 h at room temperature. After washing six times with PBS, and drying, the thin-layer plates were autoradiographed for 12 h using XAR-5 x-ray films (Eastman Kodak, Rochester, N.Y.).

Where [3] appears, read: 1 h pre-incubation, villi of two pigs.
Where [4] appears, read: Example 17, 1 mg/ml saccharide, 100 μl PBS, 1 h pre-incubation, villi of two pigs.
Where [5] appears, read: Example 17, 10 mg/ml saccharide, 100 μl PBS, 1 h pre-incubation, villi of two pigs.
The mark [6] stands for this setting: Example 17, 100 mg/ml saccharide (so in the source), 100 μl PBS, 1 h pre-incubation, villi of two pigs.

As for `CC(=O)NC1C(OC2C(O)C(CO)OC(OC3C(O)C(CO)OC(OC4C(O)C(CO)OC(OC5C(CO)OC(O)C(O)C5O)C4O)C3NC(C)=O)C2OC2OC(C)C(O)C(O)C2O)OC(CO)C(O)C1O` (stereo not shown) [A6-1, GalNAcα3(Fucα2)Galβ3GlcNAcβ3Galβ4Glc], the “Inhibition of F18+ E. coli adherence to porcine intestinal villi” value (from here on “Inhibition of F18+ E. coli adherence”) in experiment [1] (setting [3]) was determined as 72.9%.

On to `CC(=O)NC1C(OC2C(O)C(CO)OC(OC3C(CO)OC(O)C(O)C3O)C2O)OC(CO)C(O)C1OC1OC(CO)C(O)C(OC2OC(CO)C(O)C(O)C2O)C1OC1OC(C)C(O)C(O)C1O` (stereo not shown) [B6-1, Galα3(Fucα2)Galβ3GlcNAcβ3Galβ4Glc], for which the “Inhibition of F18+ E. coli adherence” value in experiment [1] (setting [3]) is given as 86.8%.

As to `CC(=O)N[C@H]1[C@H](O[C@H]2[C@@H](O)[C@@H](CO)O[C@@H](O[C@H]3[C@H](O)[C@@H](O)C(O)O[C@@H]3CO)[C@@H]2O)O[C@H](CO)[C@@H](O)[C@@H]1O[C@@H]1O[C@H](CO)[C@H](O)[C@H](O)[C@H]1O[C@@H]1O[C@@H](C)[C@@H](O)[C@@H](O)[C@@H]1O` (stereo partly shown) [H5-1, Fucα2Galβ3GlcNAcβ3Galβ4Glc], the “Reduction (inhibition) of adherence of F18-positive E. coli to porcine intestinal villi” value is recorded as 68.5% in experiment [1] (setting [4]) and 87.1% in experiment [1] (setting [5]). In addition, in experiment [1] (setting [6]), the “Inhibition of adherence of F18-positive E. coli to porcine intestinal villi” value is on record as 1.4%. Further, the “Inhibition of F18+ E. coli adherence” value in experiment [1] (setting [3]) came out at 52.4%.

For the compound `CC(=O)N[C@H]1[C@H](O[C@H]2[C@@H](O)[C@@H](CO)O[C@@H](O[C@H]3[C@H](O)[C@@H](O)C(O)O[C@@H]3CO)[C@@H]2O)O[C@H](CO)[C@@H](O)[C@@H]1O[C@@H]1O[C@H](CO)[C@H](O)[C@H](O)[C@H]1O` (stereo partly shown) [LNT, Galβ3GlcNAcβ3Galβ4Glc, reference compound], the “Reduction (inhibition) of adherence of F18-positive E. coli to porcine intestinal villi” value in experiment [1] (setting [4]) and in experiment [1] (setting [5]) was 5.8% in each case. Also, the “Inhibition of adherence of F18-positive E. coli to porcine intestinal villi” value in experiment [1] (setting [6]) is on record as 4.2%. Also, the “Inhibition of F18+ E. coli adherence” value in experiment [1] (setting [3]) came to 2.8%.

Take `C[C@@H]1O[C@@H](O[C@H]2C(O)O[C@H](CO)[C@H](O)[C@@H]2O)[C@@H](O)[C@H](O)[C@@H]1O` (stereo partly shown) [blood group H disaccharide, Fucα2Gal]: the “Inhibition of adherence of F18-positive E. coli to porcine intestinal villi” value in experiment [1] (Example 21, 0.2 mg in 100 μl PBS, villi of one pig) is recorded as 5.1%. In experiment [1] (Example 21, 1 mg in 100 μl PBS, villi of one pig), the “Reduction of adherence of F18-positive E. coli to porcine intestinal villi” value was 83.7%.

Turning to “Fucα2Galβ3(Fucα4)GlcNAcβ3Galβ4Glcβ1Cer [No. 22, reference compound]”, the “Binding of F18-fimbriated E. coli (in words)” value (“Binding … (in words)” below) in experiment [2] is “not recognized”.

For the compound “Fucα2Galβ3GalNAcβ4Galβ4Glcβ1Cer [No. 11, reference compound]”, in experiment [2], the “Binding … (in words)” value is on record as “absence of binding”.

Regarding “Fucα2Galβ3GlcNAcβ3Galβ4Glcβ1Cer [No. 23]”, the “Binding … (in words)” value in experiment [2] (listed as H type 1 pentaglycosylceramide) is “bound”. For the same compound, in experiment [2], the “Detection limit of binding of F18-fimbriated E. coli” value (“Detection limit” for short) stood at 2 µg.

Take Fucα2Galβ3GlcNAcβ3Galβ4Glcβ1Cer [O-I]: in experiment [2], the “Binding … (in words)” value is “F18 fimbriae-binding”.

Take “Fucα2Galβ4GlcNAcβ3Galβ4Glcβ1Cer [No. 14, reference compound]”: the “Binding … (in words)” value in experiment [2] is “no type 2 core counterparts of these compounds were recognized”.

For the compound “GalNAcα3(Fucα2)Galβ3(Fucα4)GlcNAcβ3Galβ4Glcβ1Cer [No. 26]”, in experiment [2], the “Binding … (in words)” value is on record as “bound” and the “Detection limit” value was 0.8 µg.

For “GalNAcα3(Fucα2)Galβ3GalNAcβ3Galα4Galβ4Glcβ1Cer [No. 32]”, in experiment [2], the “Detection limit” value is recorded as “approximately 0.8 μg”.

Consider “GalNAcα3(Fucα2)Galβ3GlcNAcβ3Galβ4Glcβ1Cer [A-I]”, for which the “Binding … (in words)” value in experiment [2] was “F18-fimbriated E. coli binding”.

Turning to “GalNAcα3(Fucα2)Galβ3GlcNAcβ3Galβ4Glcβ1Cer [No. 25]”, the “Binding … (in words)” value in experiment [2] (listed as A type 1 hexaglycosylceramide) is on record as “bound”. The “Detection limit” value in experiment [2] was “approximately 0.08 μg”.

For “GalNAcα3(Fucα2)Galβ4(Fucα3)GlcNAcβ3Galβ4Glcβ1Cer [No. 19, reference compound]”, in experiment [2], the “Binding … (in words)” value is “no type 2 core counterparts of these compounds were recognized”.

“GalNAcα3(Fucα2)Galβ4GlcNAcβ3Galβ4Glcβ1Cer [No. 17, reference compound]”: the “Binding … (in words)” value in experiment [2] is on record as “no type 2 core counterparts of these compounds were recognized”.

For the compound “Galα3(Fucα2)Galβ3(Fucα4)GlcNAcβ3Galβ4Glcβ1Cer [No. 27]”, the “Binding … (in words)” value in experiment [2] is reported as “bound”.

As for “Galα3(Fucα2)Galβ3GlcNAcβ3Galβ4Glcβ1Cer [No. 24]”, in experiment [2], the “Binding … (in words)” value is recorded as “bound” and the “Detection limit” value was “approximately 0.08 μg”.

As to “Galα3(Fucα2)Galβ4GlcNAcβ3Galβ4Glcβ1Cer [No. 16, reference compound]”, in experiment [2], the “Binding … (in words)” value was “no type 2 core counterparts of these compounds were recognized”.

In the case of “Galβ3GlcNAcβ3Galβ4Glcβ1Cer [No. 20, reference compound]”, the “Binding … (in words)” value in experiment [2] was “devoid of FedF-mediated binding activity”.
